Results on nine compounds are retold here after patent US9266903B2, “Polymorphs of 2-(4-(2-(1-isopropyl-3-methyl-1H-1,2,4-triazole-5-yl)-5,6-dihydrobenzo[F]imidazo [1,2-D][1,4]oxazepin-9-yl)-1H-pyrazol-1-yl)-2-methylpropanamide, methods of production, and pharmaceutical uses thereof” (Genentech, Inc., priority 2013, dated 2016).

Structures are written as SMILES. Values after ≈ are worked out from the molar mass of the structure shown.

Series [1] in a line: Stability of solvate/hydrate forms in the absence of solvent or at low humidity. It counts as physicochemical.
The nature of series [2]: Isothermal TGA dehydration. In kind it is physicochemical. The procedure: Weight change as a function of temperature was determined by TGA. […] 0.1-2 milligrams of the sample were placed in a DSC pan located on the sample holder. The sample holder was heated in the TGA from 25 to 300° C. at a heating rate of 10° C. min^−1. Dry N2 gas was used for purging. Isothermal experiments were conducted by heating the sample at 10° C./min to the desired temperature and then holding the sample at that temperature for at least 200 minutes.

The next series has as its system PI3K. The settings on record: cited from earlier work.
A short description of series [3]: Solubility assessment as a function of pH and in different buffers and formulation vehicles. In kind it is physicochemical. An excerpt: The solubility behavior of GDC-0032 API is summarized as a Function of pH and in Different Buffers and Formulation Vehicles
A short description of series [4]: Solubility in solvents/solvent mixtures at two temperatures (visual dissolution, HPLC for suspensions). It counts as physicochemical. The procedure:
The solubility of GDC-0032 was determined in various solvents/solvent mixtures at two different temperatures: Ethanol absolute, Methanol, Isopropanol, Acetone, Ethyl Acetate, Isopropyl acetate, Tetrahydrofuran, 2-Butanone, Methanol/Water (50/50), 2,2,2-Trifluoroethanol (TFE), 2-Butanone, TFE/Ethyl acetate (50/50), TFE/Acetone (50/50), TFE/Water (50/50), Acetonitrile, Acetonitrile/water (50/50), Acetone/water (50/50), Tert-butyl methyl ether, n-Heptane, Ethanol/Ethyl acetate (50/50), Ethanol/Acetone (50/50), Methanol/water (90/10), Ethanol/Acetonitrile (50/50).
For each experiment, approximately 5-10 mg of material was weighed in 40 mL vials. […] In each vial, the solvent was added to the solid in steps of 50 μL until dissolution or until a minimum concentration of 0.2 mg/mL was reached. Dissolution was assessed visually at two temperatures, room temperature (RT) and a higher temperature (Tmax=50 or 70° C., selected such that the boiling point of the solvent was higher than Tmax). Solubility was measured by HPLC for suspensions.

A short description of series [5]: Solubility of GDC-0032 in methanol at high temperature. In kind it is physicochemical. Particulars: approximately 15 mg in 500 mL methanol, 24 hours equilibration. The procedure:
Solubility of GDC-0032 in methanol at high temperature: Solubility of GDC-0032 in methanol at 45° C. and 55° C. was measured. Two slurries were prepared with approximately 15 mg of starting material and 500 mL of methanol. The slurries were subsequently placed in two ovens, at 45° C. and 55° C. each. After 24 hours of equilibration the two slurries were visually checked. In both cases the dissolution was not complete. The solids were separated from the mother liquor and were harvested both wet and dried for XRPD and digital imaging. The mother liquor was evaporated and the solids were also analyzed by XRPD and digital imaging.

Series [6] can be described thus: pKa and log P by potentiometric titration. It counts as physicochemical. The procedure:
GDC-0032 API is a white to off-white solid. It is crystalline as confirmed by the sharp peaks of its XRPD pattern and has a melting point of 258° C. Several physical forms of GDC-0032 free base, including an anhydrous form (Form B), several hydrates, and several solvates, have been identified to date. Form B has a melting point range of 256° C. to 258° C. Form B has been produced consistently in the API process to date. […] The reproducibility and stability of the crystalline form will be monitored during API synthesis and stability. GDC-0032 is non-hygroscopic, with less than 0.2% weight gain at 95% RH in the dynamic moisture sorption experiment.

The nature of series [7]: Dynamic vapor sorption (DVS). In kind it is physicochemical. The settings on record: for weight gain in DVS / dynamic moisture sorption experiment: at 95% RH. How it is done: Automated vapor sorption data were collected on a TA Instruments Q5000SA vapor sorption analyzer. NaCl and PVP were used as calibration standards. Samples were not dried prior to analysis. Adsorption and desorption data were collected at 25° C. over a range from 5 to 95% RH at 10% RH increments under a nitrogen purge. Samples were held at the corresponding RH for 1 hour prior to moving to the next RH range. Data were not corrected for the initial moisture content of the samples.

Series [8] can be described thus: Solid-state physical form stability (accelerated 40° C./75% RH, high humidity, API stability studies). In kind it is physicochemical.
Series [9] in a line: Slurry interconversion experiments in pure isoamyl alcohol. It counts as physicochemical. The settings on record: Form B versus Form C in pure isoamyl alcohol. The procedure: Form C was derived only from isoamyl alcohol and was initially formed at 5° C. It is crystalline by XRPD (FIG. 13) and PLM. […] This weight loss was divided into two broad steps: a 5.2% weight loss was observed from ambient to 105° C. and an additional 9.8% weight loss was observed from 105-125° C. (bp of isoamyl alcohol: 130° C.). The theoretical weight loss for a mono-solvate is 16.1% and 8.7% for a hemi-solvate. The crystal structure of Form C was solved. Form C is the mono-isoamyl alcoholate. […] The solvate, Form C, was favored at temperatures of 15° C. or below.

Series [10] in a line: Slurry in water (conversion to hydrate). It counts as physicochemical.

As to `C1CCOC1.Cc1nc(-c2cn3c(n2)-c2ccc(-c4cnn(C(C)(C)C(N)=O)c4)cc2OCC3)n(C(C)C)n1` [Form AC], the “stability in the absence of the solvate solvent” value (shortened to “stability in the absence”) in series [1] was “not stable”.
As to `Cc1nc(-c2cn3c(n2)-c2ccc(-c4cnn(C(C)(C)C(N)=O)c4)cc2OCC3)n(C(C)C)n1.O` [Form X], the “humidity at which Form X reversibly converts to Form Y” value in series [1] (at 20° C.) was 10-20 % RH.
As to `CC(C)C(=O)C(C)C.Cc1nc(-c2cn3c(n2)-c2ccc(-c4cnn(C(C)(C)C(N)=O)c4)cc2OCC3)n(C(C)C)n1` [Form Z], the “stability in the absence” value in series [1] is listed as “converts to Form B”.
Take `C1COCCO1.Cc1nc(-c2cn3c(n2)-c2ccc(-c4cnn(C(C)(C)C(N)=O)c4)cc2OCC3)n(C(C)C)n1.Cc1nc(-c2cn3c(n2)-c2ccc(-c4cnn(C(C)(C)C(N)=O)c4)cc2OCC3)n(C(C)C)n1` [Form AA]: the “stability in the absence” value in series [1] is reported as “not stable”.
Take `Cc1nc(-c2cn3c(n2)-c2ccc(-c4cnn(C(C)(C)C(N)=O)c4)cc2OCC3)n(C(C)C)n1.O` [Form D]: the figures for the “time to complete dehydration on the TGA” value in series [2] (isothermal at 60° C.) and in series [2] (isothermal at 100° C.) were at most 40 min and at most 15 min, respectively.
For `Cc1nc(-c2cn3c(n2)-c2ccc(-c4cnn(C(C)(C)C(N)=O)c4)cc2OCC3)n(C(C)C)n1` [GDC-0032, 2-(4-(2-(1-isopropyl-3-methyl-1H-1,2,4-triazol-5-yl)-5,6-dihydrobenzo[f]imidazo[1,2-d][1,4]oxazepin-9-yl)-1H-pyrazol-1-yl)-2-methylpropanamide], in the series on PI3K, the PI3K activity result was “potent”. The solubility (in general, the dissolved amount per volume that the medium holds) in [3] (FaSSIF, pH 6.8, at 37° C.) is 22 µg/mL (≈ 47.8 µM); in series [3] (FeSSIF, pH 5.0, at 37° C.), 270 µg/mL (≈ 586 µM); in series [3] (aqueous buffer, 50 mM phosphate buffer, pH 6.5, at room temperature), 0.72 µg/mL (≈ 1.56 µM); in [3] (simulated gastric fluid, 0.1N HCl, pH 1.1, at room temperature), 54 µg/mL (≈ 117 µM); in [3] (water), 1.5 µg/mL (≈ 3.26 µM). Further, the “solubility in 2,2,2-trifluoroethanol (TFE)” value in series [4] was “high solubility”. Moreover, the “solubility in various solvents/solvent mixtures” value in [4] (23 listed solvents/mixtures, RT and Tmax 50 or 70° C.) was “soluble in all except for Ethyl Acetate, Isopropyl acetate, Tetrahydrofuran, Tert-butyl methyl ether, and n-Heptane”. Further, the dissolution in methanol result in series [5] (45° C.) and in series [5] (55° C.) was “not complete” throughout. The logP (commonly the decadic logarithm of the partition coefficient of the neutral form, usually between octanol and water) in series [6] is 2.5. In addition, in series [6] (weak base), the pKa – broadly, the negative logarithm of the acid dissociation constant – came to 3.19. Besides, the “weight gain in DVS / dynamic moisture sorption experiment” value in series [7] is given as “less than 0.2%”. In [8], the “physical form conversion in ongoing stability studies for the API” value was “no physical form conversion”.
As to `CC(C)CCO.Cc1nc(-c2cn3c(n2)-c2ccc(-c4cnn(C(C)(C)C(N)=O)c4)cc2OCC3)n(C(C)C)n1` [Form C], the “temperature at which the form is preferred/favored in slurry interconversion” value in series [9] is at most 15 °C.
For the compound `Cc1nc(-c2cn3c(n2)-c2ccc(-c4cnn(C(C)(C)C(N)=O)c4)cc2OCC3)n(C(C)C)n1` [Form B], in series [10] (water, with and without Tween 80), the “conversion on slurrying in water” value is on record as “no conversion to the hydrate”. For the same compound, the “temperature at which the form is preferred/favored in slurry interconversion” value in [9] was at least 20 °C. For the same compound, in [7], the “physical form after the DVS experiment” value is reported as “still Form B” and the “weight gain in DVS / dynamic moisture sorption experiment” value is reported as “less than 0.3%”. The “physical form after accelerated stability tests” value in [8] (40° C. and 75% RH) is reported as “unchanged”. For the same compound, in series [8] (high humidity for at least 6 months), the “form change when exposed to high humidity” value was “does not exhibit any form change”.
Turning to `CO.Cc1nc(-c2cn3c(n2)-c2ccc(-c4cnn(C(C)(C)C(N)=O)c4)cc2OCC3)n(C(C)C)n1` [Form A], in series [10] (50° C.), the “form obtained on slurrying in the presence of water” value is on record as “Form D”. Further, in series [10] (room temperature, after drying), the “form obtained from water slurry experiment” value is “mixture of Form A and Form D”.
